Test results as given in patent publication US20040142317A1, “Use of amino acid transporter atbo,+ as a delivery system for drugs and prodrugs” (priority 2003, published 2004).

Legend:
ATA3 = target: T1, ATA3 (Homo sapiens, UniProt Q969I6); assay: D-[3H]-serine transport in HRPE cells transfected with transporter cDNA; assay type: cell-based; conditions: D-[3H]-serine 5 μM
T1 construct: expressed in transfected cells; host or cells: HRPE cells
T1 sequence (Q969I6 1-547): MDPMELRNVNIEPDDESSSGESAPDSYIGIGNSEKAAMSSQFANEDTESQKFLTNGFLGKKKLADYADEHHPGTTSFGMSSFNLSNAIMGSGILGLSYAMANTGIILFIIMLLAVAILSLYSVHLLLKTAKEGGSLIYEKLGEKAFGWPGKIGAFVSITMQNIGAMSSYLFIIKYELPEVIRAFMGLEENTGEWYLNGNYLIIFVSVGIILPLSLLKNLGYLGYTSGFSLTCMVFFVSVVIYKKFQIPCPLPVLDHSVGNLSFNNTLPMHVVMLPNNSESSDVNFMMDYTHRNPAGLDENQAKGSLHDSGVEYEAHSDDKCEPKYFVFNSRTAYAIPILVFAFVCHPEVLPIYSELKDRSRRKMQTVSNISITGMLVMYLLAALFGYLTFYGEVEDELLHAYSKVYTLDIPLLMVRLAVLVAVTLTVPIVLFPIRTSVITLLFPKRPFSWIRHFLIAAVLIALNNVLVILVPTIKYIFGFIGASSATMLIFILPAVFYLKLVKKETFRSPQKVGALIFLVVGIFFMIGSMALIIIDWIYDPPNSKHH
Experimental: (§1) Transport of D-[^3H]-serine (5 μM) was measured in HRPE cells transfected with cDNA of each transporter.
(§2) The present inventors evaluated the function of 10 different amino acid transporter clones with respect to transport of D-serine in heterologous expression systems (FIG. 11). All of these transporters are expressed in the intestinal tract. The list of the transporters tested include three energy-independent, heterodimeric facilitative transporters (L1, L2, and b^0,+), three subtypes of the Na^+-coupled system A (ATA1, ATA2, and ATA3), two subtypes of the Na^+- and H^+-coupled system N (SN1 and SN2), the Na^+-coupled system ATB^0, and the Na^+- and Cl^−-coupled system ATB^0,+. […] The ability to transport D-serine was the highest for the Na^+- and Cl^−-coupled transporter ATB^0,+. ATB^0,+ belongs to the gene family of neurotransmitter transporters whose transport function is energized by multiple driving forces, namely a Na^+ gradient, a Cl^− gradient, and membrane potential. […] Based on the energetics of these two transport systems, ATB^0,+ is expected to play the leading role in this process.

ATB^0,+ = target: T2, ATB^0,+ (Mus musculus, UniProt Q9JMA9); assay: as above; assay type: cell-based; conditions: D-[3H]-serine 5 μM
T2 construct: expressed in transfected cells; host or cells: HRPE cells
T2 sequence (Q9JMA9 1-638): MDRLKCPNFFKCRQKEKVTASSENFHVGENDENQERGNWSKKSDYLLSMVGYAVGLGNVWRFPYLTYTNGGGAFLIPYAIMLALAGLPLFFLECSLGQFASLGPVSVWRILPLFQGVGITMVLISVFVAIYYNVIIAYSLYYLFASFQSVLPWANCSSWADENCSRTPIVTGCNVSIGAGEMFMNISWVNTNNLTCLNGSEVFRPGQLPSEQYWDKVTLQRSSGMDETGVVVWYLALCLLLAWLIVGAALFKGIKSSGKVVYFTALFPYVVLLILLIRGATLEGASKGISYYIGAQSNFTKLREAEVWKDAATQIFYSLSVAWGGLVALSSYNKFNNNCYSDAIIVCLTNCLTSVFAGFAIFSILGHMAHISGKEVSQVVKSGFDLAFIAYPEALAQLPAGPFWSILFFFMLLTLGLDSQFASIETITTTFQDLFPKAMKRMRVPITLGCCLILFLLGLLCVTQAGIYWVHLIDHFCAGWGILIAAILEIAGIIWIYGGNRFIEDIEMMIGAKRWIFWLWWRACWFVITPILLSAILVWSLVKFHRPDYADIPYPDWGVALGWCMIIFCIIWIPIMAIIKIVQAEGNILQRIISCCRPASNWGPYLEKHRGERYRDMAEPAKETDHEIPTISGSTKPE
Experimental: as §1, §2

SN2 = target: T3, SN2 (Homo sapiens, UniProt Q8WUX1); assay: as above; assay type: cell-based; conditions: D-[3H]-serine 5 μM
T3 construct: expressed in transfected cells; host or cells: HRPE cells
Experimental: as §1, §2

b^0,+ (b^0,+AT/4F2hc) = target: T4, b^0,+ (b^0,+AT/4F2hc) (Mus musculus, UniProt Q9QXA6); assay: as above; assay type: cell-based; conditions: D-[3H]-serine 5 μM
T4 construct: expressed in transfected cells; host or cells: HRPE cells
T4 sequence (Q9QXA6 1-487): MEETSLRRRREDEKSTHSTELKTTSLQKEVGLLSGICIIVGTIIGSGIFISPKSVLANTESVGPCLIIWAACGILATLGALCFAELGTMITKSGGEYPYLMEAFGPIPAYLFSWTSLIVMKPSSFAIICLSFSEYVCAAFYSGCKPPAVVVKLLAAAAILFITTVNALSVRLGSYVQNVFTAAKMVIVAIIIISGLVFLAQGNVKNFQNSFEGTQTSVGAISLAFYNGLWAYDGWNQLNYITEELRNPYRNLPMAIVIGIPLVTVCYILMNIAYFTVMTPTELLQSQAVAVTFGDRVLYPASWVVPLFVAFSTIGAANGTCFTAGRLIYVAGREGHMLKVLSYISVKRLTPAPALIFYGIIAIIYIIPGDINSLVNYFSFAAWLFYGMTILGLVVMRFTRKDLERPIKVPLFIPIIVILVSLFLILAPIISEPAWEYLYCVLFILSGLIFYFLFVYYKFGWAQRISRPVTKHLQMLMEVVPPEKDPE
Experimental: as §1, §2

mouse ATB^0,+ = target: T5, mouse ATB^0,+ (Mus musculus, UniProt Q9JMA9); conditions: D-amino acid 1 mM; NaCl pH 7.5
T5 sequence (Q9JMA9 1-638): T2 sequence (Q9JMA9 1-638)

ATB^0 = target: T6, ATB^0 (Homo sapiens, UniProt Q15758); assay: D-[3H]-serine transport in HRPE cells transfected with transporter cDNA; assay type: cell-based; design: expressed in transfected cells; host or cells: HRPE cells; conditions: D-[3H]-serine 5 μM
T6 sequence (Q15758 1-541): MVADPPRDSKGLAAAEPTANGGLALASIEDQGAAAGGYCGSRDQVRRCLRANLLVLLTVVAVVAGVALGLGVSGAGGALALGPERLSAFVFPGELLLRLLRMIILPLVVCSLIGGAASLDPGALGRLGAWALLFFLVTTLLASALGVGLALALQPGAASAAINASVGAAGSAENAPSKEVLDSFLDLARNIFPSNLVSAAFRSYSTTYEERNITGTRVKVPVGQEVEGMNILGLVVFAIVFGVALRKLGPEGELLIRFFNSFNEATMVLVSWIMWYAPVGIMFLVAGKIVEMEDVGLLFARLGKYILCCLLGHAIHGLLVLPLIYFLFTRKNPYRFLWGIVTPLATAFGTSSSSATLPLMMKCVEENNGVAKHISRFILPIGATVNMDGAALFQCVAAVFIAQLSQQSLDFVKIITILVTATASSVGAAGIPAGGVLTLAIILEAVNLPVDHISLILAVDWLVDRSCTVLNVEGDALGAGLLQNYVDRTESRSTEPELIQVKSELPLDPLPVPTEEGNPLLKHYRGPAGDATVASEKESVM
Experimental: as §1, §2

T3 sequence (Q8WUX1 whole entry, species assumed): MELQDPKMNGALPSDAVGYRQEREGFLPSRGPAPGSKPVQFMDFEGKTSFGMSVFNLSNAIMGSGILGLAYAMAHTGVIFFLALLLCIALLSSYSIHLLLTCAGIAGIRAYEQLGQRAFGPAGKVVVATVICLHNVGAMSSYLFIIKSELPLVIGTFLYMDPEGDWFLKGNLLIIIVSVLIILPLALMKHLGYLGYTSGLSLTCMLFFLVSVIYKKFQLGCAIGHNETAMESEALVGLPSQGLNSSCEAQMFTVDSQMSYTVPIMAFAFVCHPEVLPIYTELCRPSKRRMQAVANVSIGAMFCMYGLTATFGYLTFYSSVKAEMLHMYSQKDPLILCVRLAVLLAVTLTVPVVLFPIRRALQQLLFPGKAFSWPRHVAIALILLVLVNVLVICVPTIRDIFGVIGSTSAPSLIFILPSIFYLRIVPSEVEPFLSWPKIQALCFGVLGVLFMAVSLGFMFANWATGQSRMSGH

## N[C@H](CO)C(=O)O [D-Serine, D-serine]
ATA3
  D-serine transport: did not
ATB^0,+
  D-serine transport: highest
SN2
  D-serine transport: did not transport D-serine
b^0,+ (b^0,+AT/4F2hc)
  D-serine transport: significant ability to transport
Mouse ATB^0,+
  Current in X. laevis oocytes (nA), D-isomer: 267 ± 23 nA
ATB^0
  D-serine transport: able to transport D-serine to a marked extent
